Experiments:
[1] = Inhibition of VEGFR1/PDGFR/cKIT/RET in human RPMI-8226 cells assessed as reduction of cell growth incubated for 72 hrs by CellTiter 96 aqueous one solution cell proliferation assay; type: cell-based; details: RPMI-8226, 72 h
[2] = Inhibition of VEGFR2/PDGFR/cKIT/RET in human RPMI-8226 cells assessed as reduction of cell growth incubated for 72 hrs by CellTiter 96 aqueous one solution cell proliferation assay; type: cell-based; details: RPMI-8226, 72 h
[3] = Inhibition of VEGFR3/PDGFR/cKIT/RET in human RPMI-8226 cells assessed as reduction of cell growth incubated for 72 hrs by CellTiter 96 aqueous one solution cell proliferation assay; type: cell-based; details: RPMI-8226, 72 h
[4] = Inhibition of VEGFR1/PDGFR/cKIT/RET in bortezomib Resistant human RPMI-8226 cells assessed as reduction of cell growth incubated for 72 hrs by CellTiter 96 aqueous one solution cell proliferation assay; type: cell-based; details: Bortezomib-resistant RPMI-8226, 72 h
[5] = Inhibition of VEGFR2/PDGFR/cKIT/RET in bortezomib Resistant human RPMI-8226 cells assessed as reduction of cell growth incubated for 72 hrs by CellTiter 96 aqueous one solution cell proliferation assay; type: cell-based; details: Bortezomib-resistant RPMI-8226, 72 h
[6] = Inhibition of VEGFR3/PDGFR/cKIT/RET in bortezomib Resistant human RPMI-8226 cells assessed as reduction of cell growth incubated for 72 hrs by CellTiter 96 aqueous one solution cell proliferation assay; type: cell-based; details: Bortezomib-resistant RPMI-8226, 72 h
[7] = Inhibition of VEGFR1/PDGFR/cKIT/RET in Melphalan Resistant human RPMI-8226 cells assessed as reduction of cell growth incubated for 72 hrs by CellTiter 96 aqueous one solution cell proliferation assay; type: cell-based; details: Melphalan-resistant RPMI-8226 cell
[8] = Inhibition of VEGFR2/PDGFR/cKIT/RET in Melphalan Resistant human RPMI-8226 cells assessed as reduction of cell growth incubated for 72 hrs by CellTiter 96 aqueous one solution cell proliferation assay; type: cell-based; details: Melphalan-resistant RPMI-8226 cell
[9] = Inhibition of VEGFR3/PDGFR/cKIT/RET in Melphalan Resistant human RPMI-8226 cells assessed as reduction of cell growth incubated for 72 hrs by CellTiter 96 aqueous one solution cell proliferation assay; type: cell-based; details: Melphalan-resistant RPMI-8226 cell
[10] = Inhibition of VEGFR1/PDGFR/cKIT/RET in human ANBL-6 cells assessed as reduction of cell growth incubated for 72 hrs by CellTiter 96 aqueous one solution cell proliferation assay; type: cell-based; details: ANBL-6, 72 h
[11] = Inhibition of VEGFR2/PDGFR/cKIT/RET in human ANBL-6 cells assessed as reduction of cell growth incubated for 72 hrs by CellTiter 96 aqueous one solution cell proliferation assay; type: cell-based; details: ANBL-6, 72 h
[12] = Inhibition of VEGFR3/PDGFR/cKIT/RET in human ANBL-6 cells assessed as reduction of cell growth incubated for 72 hrs by CellTiter 96 aqueous one solution cell proliferation assay; type: cell-based; details: ANBL-6, 72 h
[13] = Inhibition of VEGFR1/PDGFR/cKIT/RET in human bortezomib-resistant ANBL6 cells assessed as reduction of cell growth incubated for 72 hrs by CellTiter 96 aqueous one solution cell proliferation assay; type: cell-based
[14] = Inhibition of VEGFR2/PDGFR/cKIT/RET in human bortezomib-resistant ANBL6 cells assessed as reduction of cell growth incubated for 72 hrs by CellTiter 96 aqueous one solution cell proliferation assay; type: cell-based
[15] = Inhibition of VEGFR3/PDGFR/cKIT/RET in human bortezomib-resistant ANBL6 cells assessed as reduction of cell growth incubated for 72 hrs by CellTiter 96 aqueous one solution cell proliferation assay; type: cell-based
[16] = Inhibition of VEGFR1/PDGFR/cKIT/RET in human U-266 cells assessed as reduction of cell growth incubated for 72 hrs by CellTiter 96 aqueous one solution cell proliferation assay; type: cell-based; details: U-266, 72 h
[17] = Inhibition of VEGFR2/PDGFR/cKIT/RET in human U-266 cells assessed as reduction of cell growth incubated for 72 hrs by CellTiter 96 aqueous one solution cell proliferation assay; type: cell-based; details: U-266, 72 h
[18] = Inhibition of VEGFR3/PDGFR/cKIT/RET in human U-266 cells assessed as reduction of cell growth incubated for 72 hrs by CellTiter 96 aqueous one solution cell proliferation assay; type: cell-based; details: U-266, 72 h
[19] = Ratio of IC50 for inhibition of VEGFR1/PDGFR/cKIT/RET in human RPMI-8226 cells assessed as reduction of cell viability to IC50 for inhibition of VEGFR1/PDGFR/cKIT/RET in human melphalan-resistant RPMI-8226 cells assessed as reduction of cell viability; details: time 72 hrs; condition multiple myeloma
[20] = Ratio of IC50 for inhibition of VEGFR2/PDGFR/cKIT/RET in human RPMI-8226 cells assessed as reduction of cell viability to IC50 for inhibition of VEGFR2/PDGFR/cKIT/RET in human melphalan-resistant RPMI-8226 cells assessed as reduction of cell viability; details: time 72 hrs; condition multiple myeloma
[21] = Ratio of IC50 for inhibition of VEGFR3/PDGFR/cKIT/RET in human RPMI-8226 cells assessed as reduction of cell viability to IC50 for inhibition of VEGFR3/PDGFR/cKIT/RET in human melphalan-resistant RPMI-8226 cells assessed as reduction of cell viability; details: time 72 hrs; condition multiple myeloma
[22] = Ratio of IC50 for inhibition of VEGFR1/PDGFR/cKIT/RET in human RPMI-8226 cells assessed as reduction of cell viability to IC50 for inhibition of VEGFR1/PDGFR/cKIT/RET in human RPMI-8226/BR resistant cells assessed as reduction of cell viability; details: condition multiple myeloma
[23] = Ratio of IC50 for inhibition of VEGFR2/PDGFR/cKIT/RET in human RPMI-8226 cells assessed as reduction of cell viability to IC50 for inhibition of VEGFR2/PDGFR/cKIT/RET in human RPMI-8226/BR resistant cells assessed as reduction of cell viability; details: condition multiple myeloma
[24] = Ratio of IC50 for inhibition of VEGFR3/PDGFR/cKIT/RET in human RPMI-8226 cells assessed as reduction of cell viability to IC50 for inhibition of VEGFR3/PDGFR/cKIT/RET in human RPMI-8226/BR resistant cells assessed as reduction of cell viability; details: condition multiple myeloma
[25] = Ratio of IC50 for inhibition of VEGFR1/PDGFR/cKIT/RET in human ANBL6 cells assessed as reduction of cell viability to IC50 for inhibition of VEGFR1/PDGFR/cKIT/RET in human ANBL6/BR resistant cells assessed as reduction of cell viability; details: condition multiple myeloma
[26] = Ratio of IC50 for inhibition of VEGFR2/PDGFR/cKIT/RET in human ANBL6 cells assessed as reduction of cell viability to IC50 for inhibition of VEGFR2/PDGFR/cKIT/RET in human ANBL6/BR resistant cells assessed as reduction of cell viability; details: condition multiple myeloma
[27] = Ratio of IC50 for inhibition of VEGFR3/PDGFR/cKIT/RET in human ANBL6 cells assessed as reduction of cell viability to IC50 for inhibition of VEGFR3/PDGFR/cKIT/RET in human ANBL6/BR resistant cells assessed as reduction of cell viability; details: condition multiple myeloma
[28] = Ratio of IC50 for inhibition of hedgehog in human RPMI-8226 cells assessed as reduction of cell viability to IC50 for inhibition of hedgehog in human melphalan-resistant RPMI-8226 cells assessed as reduction of cell viability; details: time 72 hrs; condition multiple myeloma
[29] = Ratio of IC50 for inhibition of hedgehog in human RPMI-8226 cells assessed as reduction of cell viability to IC50 for inhibition of hedgehog in human RPMI-8226/BR resistant cells assessed as reduction of cell viability; details: condition multiple myeloma
[30] = Ratio of IC50 for inhibition of hedgehog in human ANBL6 cells assessed as reduction of cell viability to IC50 for inhibition of hedgehog in human ANBL6/BR resistant cells assessed as reduction of cell viability; details: condition multiple myeloma
[31] = cells; details: Homo sapiens, RPMI-8226, 72 h
[32] = cells; details: Homo sapiens, Bortezomib-resistant RPMI-8226, 72 h
[33] = cells; details: Homo sapiens, Melphalan-resistant RPMI-8226 cell, 72 h
[34] = cells; details: Homo sapiens, ANBL-6, 72 h
[35] = cells; details: Homo sapiens, Bortezomib-resistant ANBL6 cell, 72 h
[36] = cells; details: Homo sapiens, U-266, 72 h

Q: For CC1(C)CNc2cc(NC(=O)c3cccnc3NCc3ccncc3)ccc21 [MOTESANIB], which IC50 [1] is on record?
A: 10 µM

Q: And the IC50 [2]?
A: 10 µM

Q: And the IC50 [3]?
A: 10 µM

Q: And the IC50 [4]?
A: 10 µM

Q: What about the IC50 [5] of the same compound?
A: 10 µM

Q: And the IC50 [6]?
A: 10 µM

Q: What about the IC50 [7] of the same compound?
A: 10 µM

Q: And the IC50 [8]?
A: 10 µM

Q: And the IC50 [9]?
A: 10 µM

Q: What about the IC50 [10] of the same compound?
A: 10 µM

Q: And the IC50 [11]?
A: 10 µM

Q: And the IC50 [12]?
A: 10 µM

Q: What about the IC50 [13] of the same compound?
A: 10 µM

Q: What about the IC50 [14] of the same compound?
A: 10 µM

Q: And the IC50 [15]?
A: 10 µM

Q: What about the IC50 [16] of the same compound?
A: 10 µM

Q: And the IC50 [17]?
A: 10 µM

Q: What about the IC50 [18] of the same compound?
A: 10 µM

Q: And the “Ratio IC50” value [19]?
A: 1

Q: And the “Ratio IC50” value [20]?
A: 1

Q: And the “Ratio IC50” value [21]?
A: 1

Q: And the “Ratio IC50” value [22]?
A: 1

Q: What about the “Ratio IC50” value [23] of the same compound?
A: 1

Q: What about the “Ratio IC50” value [24] of the same compound?
A: 1

Q: And the “Ratio IC50” value [25]?
A: 1

Q: What about the “Ratio IC50” value [26] of the same compound?
A: 1

Q: What about the “Ratio IC50” value [27] of the same compound?
A: 1

Q: For CS(=O)(=O)c1ccc(C(=O)Nc2ccc(Cl)c(-c3ccccn3)c2)c(Cl)c1 [VISMODEGIB], which “Ratio IC50” value [28] is on record?
A: 1

Q: And the “Ratio IC50” value [29]?
A: 1

Q: And the “Ratio IC50” value [30]?
A: 1

Q: And the IC50 [31]?
A: 10 µM

Q: And the IC50 [32]?
A: 10 µM

Q: What about the IC50 [33] of the same compound?
A: 10 µM

Q: And the IC50 [34]?
A: 10 µM

Q: What about the IC50 [35] of the same compound?
A: 10 µM

Q: And the IC50 [36]?
A: 10 µM
